{"source": "patent US7727736B2", "about": "“Soluble phospholipids for use in clotting factor assays” (The University of North Carolina at Chapel Hill, priority 2003, dated 2010)", "key": {"FVa2": {"target": "T1, FVa2 (Homo sapiens, UniProt P12259)", "T1 construct": "from tissue; host or cells: fresh frozen human plasma (American Red Cross Center, Durham, N.C.)", "T1 sequence (P12259 29-737 limits assumed)": "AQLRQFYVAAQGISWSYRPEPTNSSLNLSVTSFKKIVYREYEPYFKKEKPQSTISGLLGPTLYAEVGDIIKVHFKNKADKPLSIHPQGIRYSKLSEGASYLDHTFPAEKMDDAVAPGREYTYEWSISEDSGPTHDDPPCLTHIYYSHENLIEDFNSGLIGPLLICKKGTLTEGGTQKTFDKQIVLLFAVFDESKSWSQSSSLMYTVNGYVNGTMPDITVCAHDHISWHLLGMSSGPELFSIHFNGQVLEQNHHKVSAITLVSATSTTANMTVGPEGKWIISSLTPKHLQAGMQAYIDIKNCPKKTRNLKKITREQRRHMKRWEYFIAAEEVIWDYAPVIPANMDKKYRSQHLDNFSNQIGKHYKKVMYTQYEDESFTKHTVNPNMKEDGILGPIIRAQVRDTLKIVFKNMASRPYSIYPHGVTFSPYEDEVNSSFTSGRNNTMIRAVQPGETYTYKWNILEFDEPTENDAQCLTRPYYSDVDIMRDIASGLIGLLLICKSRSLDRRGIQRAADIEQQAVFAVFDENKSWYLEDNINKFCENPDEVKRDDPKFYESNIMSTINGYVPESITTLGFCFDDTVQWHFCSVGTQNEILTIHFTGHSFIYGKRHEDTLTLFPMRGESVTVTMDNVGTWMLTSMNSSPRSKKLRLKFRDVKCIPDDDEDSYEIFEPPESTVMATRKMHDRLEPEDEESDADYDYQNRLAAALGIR", "T1 sequence (P12259 1574-2224 limits assumed)": "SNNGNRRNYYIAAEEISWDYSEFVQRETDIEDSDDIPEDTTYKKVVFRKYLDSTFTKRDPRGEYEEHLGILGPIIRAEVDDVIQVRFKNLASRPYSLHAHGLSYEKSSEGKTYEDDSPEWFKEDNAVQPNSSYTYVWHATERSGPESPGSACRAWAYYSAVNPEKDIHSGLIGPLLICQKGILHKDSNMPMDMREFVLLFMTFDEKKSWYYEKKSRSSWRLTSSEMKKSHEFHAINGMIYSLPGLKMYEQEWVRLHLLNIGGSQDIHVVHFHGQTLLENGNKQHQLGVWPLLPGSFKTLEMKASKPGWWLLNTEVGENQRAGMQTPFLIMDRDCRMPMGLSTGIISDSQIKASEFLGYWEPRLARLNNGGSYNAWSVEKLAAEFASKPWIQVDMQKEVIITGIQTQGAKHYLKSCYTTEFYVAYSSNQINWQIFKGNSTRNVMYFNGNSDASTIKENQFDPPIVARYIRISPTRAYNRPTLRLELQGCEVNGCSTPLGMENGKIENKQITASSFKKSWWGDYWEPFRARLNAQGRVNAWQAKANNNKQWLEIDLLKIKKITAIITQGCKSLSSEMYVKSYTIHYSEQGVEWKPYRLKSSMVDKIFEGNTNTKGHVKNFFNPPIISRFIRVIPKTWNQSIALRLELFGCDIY", "assay": "Native gel electrophoresis (Ferguson analysis), C6PS bound to FVa2", "type": "binding", "conditions": "400 μM C6PS", "procedure": "Native Gel Electrophoresis. This method has been used to document the association of blood coagulation proteins in solution (Majumder, et al. (2002) supra; Majumder, et al. (2003) supra). A mixture of 1 nM FXa and 1 nM FVa was incubated at 37° C. for 2 minutes in the presence and absence of 400 μM C6PS and the two samples were run together with known marker proteins (270 kiloDalton-14.2 kiloDalton; SIGMA, St. Louis, Mo.) on five gels (5, 6, 6.5, 7, and 8% total acrylamide with bisacrylamide/acrylamide being 1/29 in all cases) in a BIORAD® MINI-PROTEAN® II minigel apparatus (BIORAD® Corp., Hercules, Calif.) and stained with colloidal Coomassie blue (Mitra, et al. (1994) supra). FXa and FVa, at these same concentrations and in the presence of 400 μM C6PS, were run separately as controls. Protein retardation coefficients, which depend to a good approximation only on the hydrodynamic size and shape of the protein, were determined for both the marker and unknown proteins (Ferguson (1964) Metabolism 13:985-1002). A log-log plot of the retardation coefficient against the molecular weights of the marker proteins produced a linear curve from which the molecular weight of the FVa•FXa complex was determined from its measured retardation coefficient (Bryan (1977) Anal. Biochem. 78(2):513-9). […]"}, "factor IXa": {"target": "T2, factor IXa (Homo sapiens, UniProt P00740)", "T2 construct": "intrinsic tryptophan fluorescence of factor IXa", "T2 sequence (P00740 47-191 limits assumed)": "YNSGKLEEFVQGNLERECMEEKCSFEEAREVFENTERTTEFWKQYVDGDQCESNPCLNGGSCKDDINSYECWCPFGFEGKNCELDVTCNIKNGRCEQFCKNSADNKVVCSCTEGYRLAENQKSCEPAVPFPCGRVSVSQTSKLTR", "T2 sequence (P00740 227-461 limits assumed)": "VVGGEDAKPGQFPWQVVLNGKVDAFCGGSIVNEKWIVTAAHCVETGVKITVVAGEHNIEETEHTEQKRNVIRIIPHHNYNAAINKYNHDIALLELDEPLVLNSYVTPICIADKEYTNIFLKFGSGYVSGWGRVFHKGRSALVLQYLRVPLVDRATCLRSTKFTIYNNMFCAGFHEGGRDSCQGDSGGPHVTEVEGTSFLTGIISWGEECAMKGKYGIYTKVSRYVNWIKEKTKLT", "assay": "Activation of factor X by factor IXa (proteolytic activity)", "type": "biochemical", "procedure": "The assay was conducted in the presence of increasing concentrations of C6PS.\nC6PS promotes the proteolytic activation of factor X by factor IXa, just as it promotes the proteolytic activation of prothrombin by factor Xa. […] The rate of activation of factor X by factor IXa in the presence of 700 μM C6PS was monitored at different concentrations of factor X (FIG. 11). The KM for this reaction was 300 nM, which is the same as that obtained with 20% PS/PC membranes (Larson et al. (1996) J. Biol. Chem. 271 3869)."}}, "data": [{"smiles": "CCCCCC(=O)OC[C@H](COP(=O)(O)OC[C@H](N)C(=O)O)OC(=O)CCCCC", "note": "[C6PS, 1,2-dicaproyl-sn-glycero-3-phospho-L-serine]", "values": [{"measurement": "molecules of C6PS bound to FVa2 from molecular mass", "setting": "FVa2", "value": 4.2, "unit": "molecules"}, {"measurement": "Kd", "setting": "factor IXa; 10 nM IXa, 5 mM calcium, read-out: Kd from proteolytic activity of IXa (hyperbolic fit)", "value": 164, "unit": "µM"}, {"measurement": "rate of activation of factor X by factor IXa compared with 20% PS/PC membranes", "setting": "factor IXa; 700 μM C6PS", "value": "identical"}]}]}
